Laboratory results: article PMC6300691, “Enhancement of Heat Stability and Kinetic Parameters of the Maize Endosperm ADP-Glucose Pyrophosphorylase by Mutagenesis of Amino Acids in the Small Subunit With High B Factors” (Frontiers in Plant Science, 2018)
Substitutions are numbered along the chain they refer to. Like-named read-outs stand apart in the source and are kept apart here.

Legend:
[1] = biological target: T1, E123G, R331K, K402R (BT2-BF) (Zea mays, UniProt P55241+Q947C0, E123G/R331K/K402R); test: Pi inhibition study without 3-PGA, ATP varied (0.1-3 mM) at fixed Pi levels (10-30 mM) and sub-saturating G-1-P (1 mM), fit to mixed-type inhibition equations.; type: biochemical; conditions: read-out: Km (mM), varied substrate ATP, Pi inhibition in the absence of 3-PGA
T1 construct: BT2-BF with wild type SH2 (SH2-WT/BT2-BF), E. coli, purified
T1 sequence (Q947C0 1-475 E123G/R331K/K402R): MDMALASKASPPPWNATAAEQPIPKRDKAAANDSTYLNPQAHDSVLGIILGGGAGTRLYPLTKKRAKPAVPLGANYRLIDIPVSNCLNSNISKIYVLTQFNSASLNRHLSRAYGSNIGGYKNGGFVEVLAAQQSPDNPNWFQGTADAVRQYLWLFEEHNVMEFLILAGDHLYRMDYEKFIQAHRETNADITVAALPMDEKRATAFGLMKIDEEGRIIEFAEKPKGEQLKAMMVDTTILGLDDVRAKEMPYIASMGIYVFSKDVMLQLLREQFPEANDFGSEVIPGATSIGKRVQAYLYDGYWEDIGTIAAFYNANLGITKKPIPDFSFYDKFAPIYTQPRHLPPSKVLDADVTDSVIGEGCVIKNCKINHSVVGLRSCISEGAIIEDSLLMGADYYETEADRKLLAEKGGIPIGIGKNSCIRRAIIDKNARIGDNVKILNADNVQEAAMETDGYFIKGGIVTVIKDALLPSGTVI
T1 sequence (P55241 46-516): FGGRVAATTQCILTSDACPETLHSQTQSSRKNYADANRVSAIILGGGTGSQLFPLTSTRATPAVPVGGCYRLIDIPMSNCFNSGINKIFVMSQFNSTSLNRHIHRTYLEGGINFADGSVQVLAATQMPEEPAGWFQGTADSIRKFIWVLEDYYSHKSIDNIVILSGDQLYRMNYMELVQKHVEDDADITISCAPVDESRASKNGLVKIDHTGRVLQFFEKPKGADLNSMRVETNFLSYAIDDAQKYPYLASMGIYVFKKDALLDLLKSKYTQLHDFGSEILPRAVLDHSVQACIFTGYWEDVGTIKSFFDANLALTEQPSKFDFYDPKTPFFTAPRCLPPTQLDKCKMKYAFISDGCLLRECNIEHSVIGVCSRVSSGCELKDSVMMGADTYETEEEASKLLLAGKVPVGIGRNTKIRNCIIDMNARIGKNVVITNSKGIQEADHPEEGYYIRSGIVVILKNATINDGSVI
Description: (§3) Pi inhibition was carried out in both the presence and absence of 3-PGA with the Pi and substrate concentrations listed below.
(§4) Pi inhibition patterns in the presence and absence of 3PGA were also determined. Pi inhibition patterns were obtained by varying one substrate at several fixed concentrations of Pi, while holding the co-substrate at constant sub-saturating levels.

[2] = biological target: T2, SH2-ISM/BT2-BF (Zea mays, UniProt P55241+Q947C0, Q96G/E123G/D161G/R331K/K402R/A443R); test: as above; type: biochemical; conditions: read-out: Km (mM), varied substrate ATP, Pi inhibition in the absence of 3-PGA
T2 construct: SH2-ISM co-expressed with BT2-BF, E. coli, purified
T2 sequence (Q947C0 1-475 E123G/R331K/K402R): T1 sequence (Q947C0 1-475 E123G/R331K/K402R)
T2 sequence (P55241 46-516 Q96G/D161G/A443R): T1 sequence (P55241 46-516) with Q51G, D116G, A398R
Description: as §3
A large α value indicates competitive inhibition whereby the inhibitor prevents binding of the substrate. If the inhibitor enhances the binding of the substrate, α is very small, and the model reduces to an uncompetitive model. […] Special cases include pure non-competitive inhibition, where α = 1 and β = 0 and partial non-competitive inhibition whereby α = 1 and 0 < β < 1.
as §4

[3] = biological target: T3, SH2-E/BT2-BF (Zea mays, UniProt P55241+Q947C0, E123G/N131R/T142F/A160T/Q261S/R331K/A396S/K402R/V416I/C424V/S444A); test: as above; type: biochemical; conditions: read-out: Km (mM), varied substrate ATP, Pi inhibition in the absence of 3-PGA
T3 construct: SH2-E co-expressed with BT2-BF, E. coli, purified
T3 sequence (Q947C0 1-475 E123G/R331K/K402R): T1 sequence (Q947C0 1-475 E123G/R331K/K402R)
T3 sequence (P55241 46-516 N131R/T142F/A160T/Q261S/A396S/V416I/C424V/S444A): T1 sequence (P55241 46-516) with N86R, T97F, A115T, Q216S, A351S, V371I, C379V, S399A
Description: as §3, §4

[4] = biological target: T4, wt (SH2-WT/BT2-WT) (Zea mays, UniProt P55241+Q947C0); conditions: read-out: ATP Km (absence of 3-PGA)
Text: Activity in the absence of the activator 3PGA was examined. While 3PGA is a noted activator for plant AGPase, the mechanism of activation differs for the various AGPases. […] Thus, the term “activation fold” in the literature is merely an activity reported at single fixed substrate concentrations.
The small subunit mutant, MP, contains the first 198 amino acids of the small subunit of the maize endosperm enzyme and the last 277 amino acids from the potato tuber enzyme resulting in thirty-three amino acid sites that differ from the maize endosperm enzyme ([Cross et al., 2004]).

[5] = biological target: T5, L404H (Zea mays, UniProt P55241+Q947C0, L404H); test: Initial-rate assay (PPi formation coupled to NADH oxidation) with varied ATP (0.05-3.0 mM) at 2.0 mM G-1-P, 2.5 mM 3-PGA, 15 mM MgCl2, 50 mM HEPES pH 7.4, hyperbolic fit.; type: biochemical; conditions: read-out: KM ATP
T5 construct: BT2 variant with wild type SH2, E. coli, purified
Text: (§1) All saturation plots were hyperbolic. No cooperative effects were seen.

[6] = biological target: T6, R331P (Zea mays, UniProt P55241+Q947C0, R331P); test: as above; type: biochemical; conditions: read-out: KM ATP
T6 construct: BT2 variant with wild type SH2, E. coli, purified
Text: as §1

[7] = biological target: T4, wt (SH2-WT/BT2-WT); conditions: read-out: KM ATP
Text: (§2) All V versus S plots were fitted using non-linear regression analysis and the following equation, v = VmaxS/(Km + S), where v is the measured velocity, Vmax is the maximum velocity, S is the substrate concentration.

[8] = biological target: K403R (Zea mays, UniProt P55241+Q947C0, K403R); conditions: read-out: KM ATP
Text: as §2

T4 sequence (Q947C0 1-475, one chain of several): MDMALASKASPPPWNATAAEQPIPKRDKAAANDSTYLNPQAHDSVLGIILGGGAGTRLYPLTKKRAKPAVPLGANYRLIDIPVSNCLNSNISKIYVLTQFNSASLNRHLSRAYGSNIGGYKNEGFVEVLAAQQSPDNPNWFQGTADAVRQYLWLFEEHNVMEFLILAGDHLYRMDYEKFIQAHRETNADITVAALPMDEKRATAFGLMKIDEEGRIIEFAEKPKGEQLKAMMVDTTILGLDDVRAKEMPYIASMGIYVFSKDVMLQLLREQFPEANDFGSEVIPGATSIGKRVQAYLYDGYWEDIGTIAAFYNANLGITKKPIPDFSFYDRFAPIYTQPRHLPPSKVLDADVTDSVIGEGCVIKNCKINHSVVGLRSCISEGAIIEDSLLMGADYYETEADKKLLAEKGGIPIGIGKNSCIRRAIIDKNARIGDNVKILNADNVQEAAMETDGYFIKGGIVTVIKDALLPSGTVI
T5 sequence (Q947C0 1-475 L404H, one chain of several): as the sequence (Q947C0 1-475, one chain of several) above, with L404H counted along it
T6 sequence (Q947C0 1-475 R331P, one chain of several): as the sequence (Q947C0 1-475, one chain of several) above, with R331P counted along it
K403R, sequence (Q947C0 1-475 K403R, one chain of several): as the sequence (Q947C0 1-475, one chain of several) above, with K403R counted along it

Nc1ncnc2c1ncn2[C@@H]1O[C@H](COP(=O)(O)OP(=O)(O)OP(=O)(O)O)[C@@H](O)[C@H]1O [ATP, adenosine 5'-triphosphate]
Km [1]: 0.79 ± 0.075 mM
Km [2]: 3.6 ± 1.63 mM
Km [3]: 4.98 ± 0.66 mM
Km [4]: 4 mM
Km [5]: 132 ± 22 µM
Km [6]: 97 ± 15 µM
Km [7]: 75 ± 18 µM
Km [8]: 75 ± 13 µM
